Measurements from BindingDB's records for doi:10.1021/acs.jmedchem.6b00788 (University of Pittsburgh, 2017).
pIC50: −log10 of the molar value.

Test: Inhibition of TNFalpha-PLAP (unknown origin)

pIC50	Structure (SMILES)
7.44	COc1cc(O)c2c(c1)/C=C/C[C@H](O)[C@H](O)C(=O)/C(F)=C\C[C@H](C)OC2=O
< 5.00	COc1cc(O)c2c(c1)/C=C/C[C@H](O)[C@H](O)C(=O)/C=C(/C)C[C@H](C)OC2=O
